Measured values as given in US9932350B2, “Inhibitors of IRAK4 activity” (MERCK SHARP & DOHME CORP., priority 2014, dated 2018).

molecular target: GST tagged IRAK4 (Homo sapiens (Human), UniProt Q9NWZ3); assay: IRAK4 Kinase Assay (IMAP fluorescence polarization); assay type: biochemical; conditions: 0.5 nM GST tagged IRAK4, 100 μM ATP, 30 minutes at 25° C.
Experimental: The kinase activity of IRAK4 is determined by its ability to catalyze the phosphorylation of a fluorescent polypeptide substrate. The extent of phosphorylation is measured using the IMAP technology (Molecular Devices) where the phosphorylated fluorescent substrate binds to the large M(III)-based nanoparticles which reduces the rotational speed of the substrate and thus increases its fluorescent polarization (FP).
20 μL reaction mixture contains 10 mM TriHCl, pH 7.2, 0.5 nM GST tagged IRAK4 (SignalChem), 100 nM fluorescent peptide substrate (RP7030, Molecular Devices), 100 μM ATP, 1 mM DDT, 1 mM MgCl2, and 0.01% Tween 20. The reaction is initiated by the addition of ATP. After incubation for 30 minutes at 25° C., 60 μL of Progressive IMAP Reagent (Molecular Devices) is added to stop the reaction. Change in RP7030's FP is determined by a FP reader (Analyst HT, LJL BioSystems).

Sequence of GST tagged IRAK4 (Q9NWZ3 whole entry): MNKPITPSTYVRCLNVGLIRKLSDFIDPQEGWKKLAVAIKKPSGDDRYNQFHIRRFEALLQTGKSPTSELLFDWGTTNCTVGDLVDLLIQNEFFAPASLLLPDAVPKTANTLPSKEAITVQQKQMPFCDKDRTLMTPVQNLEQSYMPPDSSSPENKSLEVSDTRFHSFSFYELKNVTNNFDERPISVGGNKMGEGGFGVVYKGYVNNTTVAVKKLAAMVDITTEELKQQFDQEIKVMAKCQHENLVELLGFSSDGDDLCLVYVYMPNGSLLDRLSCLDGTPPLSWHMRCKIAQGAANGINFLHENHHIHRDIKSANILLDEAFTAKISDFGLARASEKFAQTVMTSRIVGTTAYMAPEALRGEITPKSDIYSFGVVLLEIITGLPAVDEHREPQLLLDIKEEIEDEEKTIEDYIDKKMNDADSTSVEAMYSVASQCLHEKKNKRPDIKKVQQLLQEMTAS

Structure (SMILES) | IC50 [nM]
N#Cc1ccc2ncnc(N[C@H]3CC[C@H](N4CCN(C(=O)C5CC(F)C5)CC4)CC3)c2c1 (stereo partly drawn) [Example 6-13, 4-[(trans-4-{4-[(3-fluorocyclobutyl)carbonyl]piperazin-1-yl}cyclohexyl)amino] quinazoline-6-carbonitrile] | 10
Brc1ccc2ncnc(N[C@H]3CC[C@H](N4CCOCC4)CC3)c2c1 [Example 2-2, 6-Bromo-N-[trans-4-(morpholin-4-yl)cyclohexyl]quinazolin-4-amine] | 5
N#Cc1ccc2ncnc(N[C@H]3CC[C@H](N4CCCC5COCCC54)CC3)c2c1 (stereo partly drawn) [Example 3-25, 4-{[trans-4-(hexahydro-2H-pyrano[4,3-b]pyridin-1(5H)-yl)cyclohexyl]amino} quinazoline-6-carbonitrile] | 53
N#Cc1ccc2ncnc(N[C@H]3CC[C@H](N4C5CCC4COC5)CC3)c2c1 [Example 3-47, 4-{[trans-4-(3-oxa-8-azabicyclo[3.2.1]oct-8-yl)cyclohexyl]amino} quinazoline-6-carbonitrile] | 872
CS(=O)(=O)N1CCN([C@H]2CC[C@H](Nc3ncnc4ccc(C#N)cc34)CC2)CC1 [Example 3-20, 4-({trans-4-[4-(methylsulfonyl)piperazin-1-yl]cyclohexyl}amino) quinazoline-6-carbonitrile] | 8
N#Cc1ccc2ncnc(N[C@H]3CC[C@H](N4CCC5OCCC54)CC3)c2c1 (stereo partly drawn) [Example 3-39, 4-{[trans-4-(hexahydro-4H-furo[3,2-b]pyrrol-4-yl)cyclohexyl]amino} quinazoline-6-carbonitrile] | 174
Cc1c(C#N)ccc2ncnc(N[C@H]3CC[C@H](N4CCOCC4)CC3)c12 [Example 5-2, 5-methyl-4-{[trans-4-(morpholin-4-yl)cyclohexyl]amino} quinazoline-6-carbonitrile] | 52
CC1CN([C@H]2CC[C@H](Nc3ncnc4ccc(C#N)cc34)CC2)CC(C)O1 (single isomer, unassigned) [Example 3-15, 4-({trans-4-[2S,6S or 2R,6R)-2,6-dimethylmorpholin-4-yl]cyclohexyl}amino) quinazoline-6-carbonitrile] | 58
N#Cc1ccc2ncnc(N[C@H]3CC[C@H](N4CCC(O)C4)CC3)c2c1 (stereo partly drawn) [Example 3-55, 4-{[trans-4-(3-hydroxypyrrolidin-1-yl)cyclohexyl]amino} quinazoline-6-carbonitrile] | 15
COc1ccc2ncnc(N[C@H]3CC[C@H](N4CCOCC4)CC3)c2c1 [Example 2-8, 6-methoxy-N-[trans-4-(morpholin-4-yl)cyclohexyl]quinazolin-4-amine] | 16
N#Cc1ccc2ncnc(N[C@H]3CC[C@H](N4CCN(C(=O)CF)CC4)CC3)c2c1 [Example 6-19, 4-({trans-4-[4-(fluoroacetyl)piperazin-1-yl]cyclohexyl}amino) quinazoline-6-carbonitrile] | 23
N#Cc1ccc2ncnc(N[C@H]3CC[C@H](N4CCN(C(=O)C5CCCC5)CC4)CC3)c2c1 [Example 6-16, 4-({trans-4-[4-(cyclopentylcarbonyl)piperazin-1-yl]cyclohexyl}amino) quinazoline-6-carbonitrile] | 10
CC1CC(N2CCOCC2)CCC1Nc1ncnc2ccc(C#N)cc12 (single isomer, unassigned) [Example 8-3, 4-{[(1S,2R,4S or 1R,2S,4R)-2-methyl-4-(morpholin-4-yl)cyclohexyl]amino} quinazoline-6-carbonitrile] | 26
C[C@@H]1COCCN1[C@H]1CC[C@H](Nc2ncnc3ccc(C#N)cc23)CC1 [Example 3-31, 4-({trans-4-[(3R)-3-methylmorpholin-4-yl]cyclohexyl}amino) quinazoline-6-carbonitrile] | 10
N#Cc1ccc2ncnc(N[C@H]3CC[C@H](N4CC(N5CCOCC5)C4)CC3)c2c1 [Example 3-37, 4-({trans-4-[3-(morpholin-4-yl)azetidin-1-yl]cyclohexyl}amino) quinazoline-6-carbonitrile] | 41
Clc1ccc2ncnc(N[C@H]3CC[C@H](N4CCOCC4)CC3)c2c1 [Example 2-13, 6-chloro-N-[trans-4-(morpholin-4-yl)cyclohexyl]quinazolin-4-amine] | 6
N#Cc1ccc2ncnc(N[C@H]3CC[C@H](N4CCN(C(=O)C5CC(O)C5)CC4)CC3)c2c1 (stereo partly drawn) [Example 6-21, 4-[(trans-4-{4-[(3-hydroxycyclobutyl)carbonyl]piperazin-1-yl}cyclohexyl)amino] quinazoline-6-carbonitrile] | 10
CC1(C(=O)N2CCN([C@H]3CC[C@H](Nc4ncnc5ccc(C#N)cc45)CC3)CC2)COC1 [Example 6-9, 4-[(trans-4-{4-[(3-methyloxetan-3-yl)carbonyl]piperazin-1-yl}cyclohexyl)amino] quinazoline-6-carbonitrile] | 14

Structure (SMILES) | IC50 [nM]
N#Cc1ccc2ncnc(N[C@H]3CC[C@H](N4CCCC(CN5CCOCC5)C4)CC3)c2c1 (stereo partly drawn) [Example 3-46, 4-({trans-4-[3-(morpholin-4-ylmethyl)piperidin-1-yl]cyclohexyl}amino) quinazoline-6-carbonitrile] | 7
C[C@]1(Nc2ncnc3ccc(C#N)cc23)CC[C@H](N2CCC(F)CC2)CC1 [Example 7-2, 4-{[trans-4-(4-fluoropiperidin-1-yl)-1-methylcyclohexyl]amino} quinazoline-6-carbonitrile] | 74
N#Cc1ccc2ncnc(N[C@H]3CC[C@H](N4CCC4)CC3)c2c1 [Example 3-1, 4-{[Trans-4-(azetidin-1-yl)cyclohexyl]amino}quinazoline-6-carbonitrile] | 34
N#Cc1ccc2ncnc(N[C@H]3CC[C@H](N4CCN(C(=O)CC5CC5)CC4)CC3)c2c1 [Example 6-17, 4-({trans-4-[4-(cyclopropylacetyl)piperazin-1-yl]cyclohexyl}amino) quinazoline-6-carbonitrile] | 9
CN(C)[C@H]1CC[C@H](Nc2ncnc3ccc(OCCCC(N)=O)cc23)CC1 [Example 4-1, 4-[(4-{[Trans-4-(dimethylamino)cyclohexyl]amino}quinazolin-6-yl)oxy]butanamide] | 525
CC(C)(C)OC(=O)N1CCN([C@H]2CC[C@H](Nc3ncnc4ccc(C#N)cc34)CC2)CC1 [Example 3-45, tert-butyl 4-{trans-4-[(6-cyanoquinazolin-4-yl)amino]cyclohexyl} piperazine-1-carboxylate] | 6
N#Cc1ccc2ncnc(N[C@H]3CC[C@H](N4CCN(C(=O)C5CCC5)CC4)CC3)c2c1 [Example 6-15, 4-({trans-4-[4-(cyclobutylcarbonyl)piperazin-1-yl]cyclohexyl}amino) quinazoline-6-carbonitrile] | 10
C[C@H]1COCCN1[C@H]1CC[C@H](Nc2ncnc3ccc(C#N)cc23)CC1 [Example 3-28, 4-({trans-4-[(3S)-3-methylmorpholin-4-yl]cyclohexyl}amino) quinazolin-6-carbonitrile] | 47
N#Cc1ccc2ncnc(N[C@H]3CC[C@H](N4CCOCC4)CC3)c2c1 [Example 2-7, 4-{[trans-4-(morpholin-4-yl)cyclohexyl]amino} quinazoline-6-carbonitrile] | 6
C[C@]1(Nc2ncnc3ccc(C#N)cc23)CC[C@H](N2CCOCC2)CC1 [Example 7-1, 4-{[Trans-1-methyl-4-(morpholin-4-yl)cyclohexyl]amino}quinazoline-6-carbonitrile] | 98
N#Cc1ccc2ncnc(NC3CCC(N4CCCC(C(F)(F)F)C4)CC3)c2c1 (single isomer, unassigned) [Example 3-4, 4-({cis or trans-4-[(3R or S)-3-(trifluoromethyl)piperidin-1-yl]cyclohexyl}amino) quinazoline-6-carbonitrile] | 503
N#Cc1ccc2ncnc(N[C@H]3CC[C@H](N4CCOC(C(F)(F)F)C4)CC3)c2c1 (single isomer, unassigned) [Example 3-49, 4-({trans-4-[(2R or 2S)-2-(trifluoromethyl)morpholin-4-yl]cyclohexyl}amino) quinazoline-6-carbonitrile] | 131
CN1CCN([C@H]2CC[C@H](Nc3ncnc4ccc(C#N)cc34)CC2)CC1 [Example 3-30, 4-{[trans-4-(4-methylpiperazin-1-yl)cyclohexyl]amino} quinazoline-6-carbonitrile] | 17
CN(C)[C@H]1CC[C@H](Nc2ncnc3ccc(OCCCC#N)cc23)CC1 [Example 2-16, 4-[(4-{[trans-4-(dimethylamino)cyclohexyl]amino}quinazolin-6-yl)oxy]butanenitrile] | 734
N#Cc1ccc2ncnc(N[C@H]3CC[C@H](NCC(F)(F)F)CC3)c2c1 [Example 3-21, 4-({trans-4-[(2,2,2-trifluoroethyl)amino]cyclo-hexyl}amino)quinazoline-6-carbonitrile] | 512
CC1CN([C@H]2CC[C@H](Nc3ncnc4ccc(C#N)cc34)CC2)CCO1 (single isomer, unassigned) [Example 3-17, 4-({trans-4-[(2S or 2R)-2-methylmorpholin-4-yl]cyclohexyl}amino) quinazoline-6-carbonitrile] | 4
N#Cc1ccc2ncnc(N[C@H]3CC[C@H](N4CC[C@H](O)C4)CC3)c2c1 [Example 3-34, 4-({trans-4-[(3S)-3-hydroxypyrrolidin-1-yl]cyclohexyl}amino) quinazoline-6-carbonitrile] | 33
N#Cc1cc2c(N[C@H]3CC[C@H](N4CCOCC4)CC3)ncnc2cc1F [Example 5-1, 7-Fluoro-4-{[trans-4-(morpholin-4-yl)cyclohexyl]amino}quinazoline-6-carbonitrile] | 27
